According to patent US6649763B1, “Optically active quinoline carboxylic acid derivatives with 7-pyrrolidine substituents causing optical activity and a process for the preparation thereof” (Dong Wha Pharm. Ind. Co., Ltd., priority 1999, dated 2003):
Converted amounts (≈) assume the structure as drawn.

Assays:
Enterobacter cloacae P99 = assay: Antibacterial activity in vitro (MIC, agar dilution); format: cell-based; details: standard strain Enterobacter cloacae P99, read-out: minimum inhibitory concentration (MIC)
Source text: Corresponding enantiomers and racemates of the compounds of interest were also used as comparative ones. Bacteria were inoculated at an amount of about 10^7 cfu/ml onto each agar. […] Hoechst standard strains were used as the test bacteria.

[1] = test system: Staphylococcus aureus and Staphylococcus epidermis, both resistant to quinolone antibacterial agents; assay: Antibacterial activity in vitro, potency comparison; format: cell-based; details: against resistant staphylcoccus aureus and staphylococcus epidermis (Table 2)
Method: (§1) The optically active quinoline carboxylic acid derivatives of the present invention were tested as to whether they could be useful as antibacterial compounds. In this regard, the compounds were measured for minimum inhibitory concentration (MIC: unit μg/ml) according to an agar dilution process (Hoechst 345) in which Muller-Hinton agars were diluted two fold. For comparison, ciprofloxacin and sparfloxacin were used as controls. Corresponding enantiomers and racemates of the compounds of interest were also used as comparative ones. Bacteria were inoculated at an amount of about 10^7 cfu/ml onto each agar. 18 hours after the inoculation at 37° C., the growth of the bacteria was observed. As to methicillin-resistant strains, their growth was observed 48 hours after the inoculation at […]. Hoechst standard strains were used as the test bacteria.

[2] = test system: Staphylococcus aureus 693E; assay: Antibacterial activity in vitro (MIC, agar dilution); format: cell-based; details: resistant strain Staphylococcus aureus 693E, read-out: minimum inhibitory concentration (MIC)
Method: as §1

[3] = test system: Staphylococcus aureus 208E; assay: as above; format: cell-based; details: resistant strain Staphylococcus aureus 208E, read-out: minimum inhibitory concentration (MIC)
Method: as §1

[4] = test system: Streptococus pyogenes 77A; assay: as above; format: cell-based; details: standard strain Streptococus pyogenes 77A, read-out: minimum inhibitory concentration (MIC)
Method: as §1

[5] = test system: Staphylococcus epidermidis 329; assay: as above; format: cell-based; details: Staphylococcus epidermidis, 329, resistant strain Staphylococcus epidermidis 329, read-out: minimum inhibitory concentration (MIC)
Method: as §1

[6] = test system: Staphylococcus aureus 256E; assay: as above; format: cell-based; details: resistant strain Staphylococcus aureus 256E, read-out: minimum inhibitory concentration (MIC)
Method: as §1

[7] = test system: Pseudomonas aeruginosa 1771M; assay: as above; format: cell-based; details: read-out: minimum inhibitory concentration (MIC)
Method: as §1

[8] = test system: Staphylococcus epidermidis 319; assay: as above; format: cell-based; details: Staphylococcus epidermidis, 319, resistant strain Staphylococcus epidermidis 319, read-out: minimum inhibitory concentration (MIC)
Method: as §1

[9] = test system: Staphylococcus aureus 241; assay: as above; format: cell-based; details: resistant strain Staphylococcus aureus 241, read-out: minimum inhibitory concentration (MIC)
Method: as §1

[10] = test system: Streptococus faecium MD 8b; assay: as above; format: cell-based; details: standard strain Streptococus faecium MD 8b, read-out: minimum inhibitory concentration (MIC)
Method: as §1

[11] = test system: Staphylococcus aureus 88E; assay: as above; format: cell-based; details: resistant strain Staphylococcus aureus 88E, read-out: minimum inhibitory concentration (MIC)
Method: as §1

Escherichia coli DC 2 = assay: as above; format: cell-based; details: DC2, standard strain Escherichia coli DC 2, read-out: minimum inhibitory concentration (MIC)
Method: as §1

Escherichia coli DC 0 = assay: as above; format: cell-based; details: DC0, standard strain Escherichia coli DC 0, read-out: minimum inhibitory concentration (MIC)
Method: as §1

[12] = test system: Streptococus pyogenes 308A; assay: as above; format: cell-based; details: standard strain Streptococus pyogenes 308A, read-out: minimum inhibitory concentration (MIC)
Method: as §1

[13] = test system: Staphylococcus aureus 121E; assay: as above; format: cell-based; details: resistant strain Staphylococcus aureus 121E, read-out: minimum inhibitory concentration (MIC)
Method: as §1

[14] = test system: Staphylococcus aureus 285; assay: as above; format: cell-based; details: standard strain Staphylococcus aureus 285, read-out: minimum inhibitory concentration (MIC)
Method: as §1

[15] = test system: Staphylococcus aureus 503; assay: as above; format: cell-based; details: standard strain Staphylococcus aureus 503, read-out: minimum inhibitory concentration (MIC)
Method: as §1

[16] = test system: Staphylococcus aureus SG511; assay: as above; format: cell-based; details: standard strain Staphylococcus aureus SG511, read-out: minimum inhibitory concentration (MIC)
Method: as §1

[17] = test system: Staphylococcus aureus 692E; assay: as above; format: cell-based; details: resistant strain Staphylococcus aureus 692E, read-out: minimum inhibitory concentration (MIC)
Method: as §1

[18] = test system: Staphylococcus aureus 293; assay: as above; format: cell-based; details: resistant strain Staphylococcus aureus 293, read-out: minimum inhibitory concentration (MIC)
Method: as §1

[19] = test system: Staphylococcus aureus 690E; assay: as above; format: cell-based; details: resistant strain Staphylococcus aureus 690E, read-out: minimum inhibitory concentration (MIC)
Method: as §1

[20] = test system: Staphylococcus aureus 303; assay: as above; format: cell-based; details: resistant strain Staphylococcus aureus 303, read-out: minimum inhibitory concentration (MIC)
Method: as §1

[21] = test system: Staphylococcus aureus 179; assay: as above; format: cell-based; details: resistant strain Staphylococcus aureus 179, read-out: minimum inhibitory concentration (MIC)
Method: as §1

Pharmacokinetic test = details: SD rats, oral, control at 50 mg/5 ml/kg
Method: After being starved for 16 hours, SD rats were orally administered at a dose of 40 mg/5 ml/kg with the compounds of interest and at a dose of 50 mg/5 ml/kg with the control. Immediately after being drawn at predetermined times from the eyeballs, blood was separated into plasma and other ingredients and quantitatively analyzed for pharmacokinetic parameters by use of high performance liquid chromatograph (HPLC).

Phototoxicity test = format: in vivo; details: CD-1 female mice, oral 50 mg/kg, after 48 hours of the UV exposure
Method: It is known that the presence of a halogen atom at the 8-position of the quinolone nuclei causes phototoxicity.
After 16 hours of starvation, CD-1 female mice were orally administered with a dose of 50 mg/kg of the compounds and allowed to be exposed for 4.5 hours to a UVA light source. The mice were located 15 cm away from the light source. Whether the mice were damaged in their ears was adopted as a main factor for the phototoxicity and determined after 24 hour and 48 hour UV exposure. The edema which the mice suffered were examined by measuring the thickness changes of their ears with the aid of electronic calipers and calculating average values. Also, an observation was made as to whether the mice suffered from erythema.

Row | Structure (SMILES) | MIC [2] [µg/mL] | MIC [3] [µg/mL] | MIC [4] [µg/mL] | MIC [5] [µg/mL] | MIC [6] [µg/mL] | MIC [7] [µg/mL] | MIC [8] [µg/mL] | MIC [9] [µg/mL] | MIC [10] [µg/mL] | MIC [11] [µg/mL] | MIC (Escherichia coli DC 2) [µg/mL] | MIC (Escherichia coli DC 0) [µg/mL] | MIC [12] [µg/mL] | MIC [13] [µg/mL] | MIC [14] [µg/mL] | MIC [15] [µg/mL] | MIC [16] [µg/mL] | MIC [17] [µg/mL] | MIC [18] [µg/mL] | MIC [19] [µg/mL] | further results
1 | CO/N=C1\CN(c2cc3c(cc2F)c(=O)c(C(=O)O)cn3C2CC2)CC1(C)CN.Cl (single isomer, unassigned; (-)) [Example 19, (−)-7-(4-Aminomethyl-4-methyl-3-(Z)-methyloxyiminopyrrolidin-1-yl)-1-cyclopropyl-6-fluoro-4-oxo-1,4-dihydro-3-quinolinecarboxylic Acid Hydrochloride] | 0.007 | 0.007 | 0.013 | 0.391 | 0.007 | 0.195 | 0.391 | 0.195 | 0.049 | 0.007 | 0.195 | 0.007 | 0.049 | 0.007 | 0.007 | 0.007 | 0.004 | 0.004 | 0.195 | 0.004 | MIC (Enterobacter cloacae P99): 0.025 µg/mL; fold more potent antibacterial activity than its enantiomer [1]: 12-32 fold; fold more potent antibacterial activity than its racemate [1]: Two-fold higher potency; MIC [20]: 0.195 µg/mL; MIC [21]: 0.195 µg/mL
2 | O=C(O)c1cn(C2CC2)c2cc(N3CCNCC3)c(F)cc2c1=O [Ciprofloxacin, ciprofloxacin] | 0.391 (≈ 1.18 µM) | 0.781 (≈ 2.36 µM) | 0.391 (≈ 1.18 µM) | 50 (≈ 151 µM) | 0.781 (≈ 2.36 µM) | 0.098 (≈ 0.296 µM) | 100 (≈ 302 µM) | 12.5 (≈ 37.7 µM) | 0.391 (≈ 1.18 µM) | 0.781 (≈ 2.36 µM) | 0.098 (≈ 0.296 µM) | 0.195 (≈ 0.589 µM) | 3.12 (≈ 9.43 µM) | 0.781 (≈ 2.36 µM) | 0.781 (≈ 2.36 µM) | 0.391 (≈ 1.18 µM) | 0.195 (≈ 0.589 µM) | 0.391 (≈ 1.18 µM) | 12.5 (≈ 37.7 µM) | 0.391 (≈ 1.18 µM) | Area Under Curve (Pharmacokinetic test): 12720 ng·h/mL; MIC [20]: 12.5 µg/mL (≈ 37.7 µM); MIC [21]: 12.5 µg/mL (≈ 37.7 µM)
3 | C[C@@H]1CN(c2c(F)c(N)c3c(=O)c(C(=O)O)cn(C4CC4)c3c2F)C[C@H](C)N1 [Sparfloxacin, sparfloxacin] | 0.049 (≈ 0.125 µM) | 0.098 (≈ 0.25 µM) | 0.391 (≈ 0.996 µM) | 12.5 (≈ 31.9 µM) | 0.098 (≈ 0.25 µM) | 0.098 (≈ 0.25 µM) | 12.5 (≈ 31.9 µM) | 6.25 (≈ 15.9 µM) | 0.391 (≈ 0.996 µM) | 0.098 (≈ 0.25 µM) | 0.025 (≈ 0.0637 µM) | 0.195 (≈ 0.497 µM) | 0.391 (≈ 0.996 µM) | 0.098 (≈ 0.25 µM) | 0.009 (≈ 0.0229 µM) | 0.049 (≈ 0.125 µM) | 0.098 (≈ 0.25 µM) | 0.049 (≈ 0.125 µM) | 6.25 (≈ 15.9 µM) | 0.049 (≈ 0.125 µM) | MIC (Enterobacter cloacae P99): 0.007 µg/mL (≈ 0.0178 µM); edema and erythema observed after UV exposure (Phototoxicity test): serious edema and erythema; increase in ear thickness compared with before the UV exposure (Phototoxicity test): 150%; MIC [20]: 3.12 µg/mL (≈ 7.96 µM); MIC [21]: 6.25 µg/mL (≈ 15.9 µM)
